Source: US7713960B2, “Inhibition of the Raf/Mek/P-Erk pathway for treating cancer” (University of South Florida, priority 2005, dated 2010)
Structures can show the parent of a compound that is named as a salt.

Legend:
[1] = test system: P-Erk 1/2; experiment: P-Erk 1/2 levels (Western blotting), MDA-MB-231; type: cell-based, human
Experimental: Western Blotting—Treated cell samples were lysed in 30 mM HEPES, 10 mM NaCl, 5 mM MgCl2, 25 mM NaF, 1 mM EGTA, 1% Triton-X-100, 10% Glycerol, 2 mM Sodium orthovanidate, 10 μg/mL aprotinin, 10 μg/mL soybean trypsin inhibitor, 25 μg/mL leupeptin, 2 mM phenylmethylsulfonylfluoride (PMSF), 6.4 mg/mL p-nitrophenylphosphate for 30 minutes at 4° C., and proteins run on SDS-PAGE gels then transferred to nitrocellulose membranes. Membranes were blocked in either 5% milk in PBS, pH 7.4, containing 0.1% Tween-20 (PBS-T) or 1% BSA in TBS, pH 7.5, containing 0.1% Tween-20 (TBS-T). Phospho-STAT3 and phospho-AKT antibodies were diluted in 1% BSA in TBS-T while phospho-c-Raf, phospho-Mek, and phospho-p44/p42 MAPK antibodies (Cell Signaling) were diluted in 5% milk in PBS-T for either 1 hour at room temperature or overnight at 4° C. HRP-conjugated secondary antibodies (Jackson ImmunoResearch, West Grove, Pa.) were diluted in 5% milk in PBS-T or TBS-T at a 1:1000 dilution for one hour at room temperature. Western blots results were visualized using enhanced chemiluminescence. Stripping of the membranes for reblotting was done using stripping buffer (62.5 mM Tris pH 7.6, 2% SDS, 0.7% 2-mercaptoethanol) at 50° C. for 30 minutes.

[2] = test system: HCT-116 cells; experiment: Anchorage-independent growth (soft agar assay), HCT-116; type: cell-based, human
Experimental: (§1) Soft Agar Assay—Anchorage independent growth assays were performed as previously described (Lerner et al., 1997). Briefly, agar was diluted to 0.3% in propagation media containing 20,000 cells and either vehicle or ARA-211 and 1 ml of cell/agar mixture plated on top of 2 ml of a 0.6% layer of agar in medium alone. Cells were grown for three to four weeks at 37° C., 10% Co2 and were fed weekly with 100 μl per well of media/treatment. Quantification of colonies was done using a GS-700 scanning densitometer.

[3] = test system: SNB-19 cells; experiment: Anchorage-independent growth (soft agar assay), SNB-19; type: cell-based, human
Experimental: as §1

[4] = test system: ACHN cells; experiment: Nude mouse xenograft model, ACHN (s.c.); type: in vivo, nude mice; details: i.p. 200 mpk/day
Description: (§2) Anti-tumor activity in nude mouse xenograft model—Female athymic nude (nu/nu) mice, 5-6 weeks old, were purchased from Charles River (Wilmington, Mass.) and allowed to acclimate in the animal facility for one week. After harvesting, A-549, SNB-19, ACHN, and HCT-116 cells were, resuspended in sterile PBS, and injected s.c. into the right and left flanks (10×10^6 cells per flank) of the mice as previously described (Sun et al., 2005). For MDA-MB-231, cells were harvested and resuspended in PBS (10×10^6 cells per 50 μl) and an equal volume of Matrigel (BD Biosciences, San Jose, Calif.). 100 μl of MDA-MB-231 cells in PBS/Matrigel were injected s.c. into the mammary fat pads between the 2nd and 3rd nipples on each side of the mice. Once the tumors reached approximately 200-300 mm^3 the mice were randomized and treated i.p. with 0.1 ml vehicle (PBS) or ARA-211. Each treatment group consisted of five mice (2 tumors per mouse, a total of 10 tumors). The tumor volumes were determined by measuring the length (l) and width (w) and calculating the volume (V=w^2l/2). Statistical significance between the control and treated animals was determined using a student's t test.

[5] = test system: MDA-MB-231 cells; experiment: Immunohistochemistry of MDA-MB-231 xenograft tumors (P-Erk 1/2, Tunel, Ki-67); type: in vivo, nude mice; details: 75 mpk/day, tumors removed on day 12
Description: as §2, with “test. Immunohistochemisty (IHC) and slide quantitation—Upon completion of the xenograft study, mice were euthanized and the tumors were removed and fixed in 10% buffered formalin for at least 24 hours. […] The IHC slides were analyzed at the Analytical Microscopy Core facility of the H. Lee Moffitt Cancer Center & Research Institute. The Ariol SL-50 automated image analysis system (Applied Imaging, Santa Clara, Calif.) was used for quantitation of each slide as previously described (Jiang et al., 2004). Briefly, high-resolution digital pictures were taken of the entire stained area of each slice of tumor tissue for automatic staining quantitation. […] Each slide analyzed consisted of 54,000 to 160,000 cells analyzed depending on the size of the tumor when resected. Significance of the quantitation was analyzed by a two-tailed student's t-test.” for “test.”

Structure (SMILES): CC(C)(C)NCC(O)c1ccc(O)c(CO)n1 (stereo not drawn) [ARA-211, 2-hydroxymethyl-3-hydroxy-6-(1-hydroxy-2-tert-butylaminoethyl) pyridine, dihydrochloride]
- P-Erk ½ (% Inhibition) ([1]; MDA-MB-231): 100%
- levels of P-Erk 1/2 ([1]; MDA-MB-231, at 10 nM): suppressed potently
- inhibition of P-Erk 1/2 in cells ectopically expressing constitutively activated Mek-1 ([1]; MDA-MB-231 with CA-Mek, 10 μM, 48 hours): resistant
- Anchorage Independent Growth (% Inhibition) [2]: 7.3 ± 3.1%
- Anchorage Independent Growth (% Inhibition) [3]: 5.1 ± 5.0%
- growth of tumors [4]: suppressed tumor growth
- P-Erk 1/2 levels in tumors (IHC) [5]: suppresses P-Erk 1/2 levels
- apoptosis in tumors (Tunel) [5]: induces apoptosis
- tumor cell proliferation in tumors (Ki-67) [5]: inhibits tumor cell growth
